Assay results as given in patent US8030493B2, “Monovalent and divalent salts of N-(5-hydroxynicotinoil) -L-glutamic acid exhibiting psychotropic (antidepressant and anxiolytic), neuroprotective, geroprotective and cerebroprotective action” (Obschestvo S Ogranichennoy Otvetstvennostyu “Natsionalnaya …, priority 2006, dated 2011).
Marks after values point to notes of the source that are not given here.

Legend:
Type in all cases: in vivo
[1] = tested on: mice exposed to hypoxia in hermovolume; test: Hypoxia with hypercapnia in hermovolume
Procedure: White nondescript male mice with body weight 22-28 g were used in the experiments. Each dose level was studied in 10 animals. Control animals received equivalent volume of distilled water. Nooglutyl was used as reference agent. Study compounds were administered intraperitoneally 40 minutes before the experiment.
Acute hypobaric hypoxia was simulated in flow-exhaust chamber. Pressure was measured with altimeter, and elevation speed with variometer. The animals were “elevated” at the speed 20 m/s to the stage at 11000 m. The exposure lasted 10 minutes. Then the animals were mover down to the baseline level for 5 minutes. Hypoxia with hypercapnia in hermovolume was created by placement of the animal into 200 ml hermetically sealed glass vessels. Life period of the animals under hypoxic conditions was recorded. Each group comprised 10 animals.

rats with amnesia = test: Antiamnestic activity: passive avoidance response (PAR) with amnesia by maximum electric shock; details: for Time of presence of animals while PAR reproduction (seconds) in the dark chamber / Time of presence of animals while PAR reproduction (seconds) on the illuminated platform: rats with electric shock amnesia, 24 hours after learning; for Dose level with statistically significant antiamnestic effect of the same intensity: PAR, electric shock amnesia, intraperitoneally
Procedure: White nondescript male rats with body weight 250-280 g were used in the experiments. Each dose level was studied in 10 animals. Control animals received equivalent volume of distilled water. Nooglutyl was used as reference agent. Study compounds were administered intraperitoneally 40 minutes before the experiment. Experiment was carried out on the standard automated unit for passive avoidance response (Passive Avoidance) supplied by Lafayette Instrument Co., (USA) (Ader et al. Retention of a passive avoidance response as a function of the intensity and duration of electric shock. Psycho Sci. 1972, v. 26, p. 125-128; Voronina T. A. et al. “Textbook for Experimental (Preclinical Study) of novel pharmacological compounds”. Moscow, Medicina. 2005, p. 253-263 and 308-320). The unit was designed as small platform situated 1 m above the floor, which was illuminated with special lamp, and dark chamber with electrode floor connected with the platform. The rat was placed on illuminated platform in front of the entry to the dark chamber with its tail directed to the entry; the animal preferred dark chamber and quickly ran into it. In the dark chamber the animal received single pain stimulus with electric current (0.45 mA) and memorized that it was dangerous to enter dark chamber. Duration of the stimulus was determined from the running out of the animal from the dark chamber. To achieve amnesia maximum electric shock was used (50 Hz, 0.2 sec), which was made through corneal electrodes immediately after learning. Electric shock caused obliteration of the memory trace. Test for reproduction of passive avoidance response (PAR) (for retention of memory trace) was performed 24 hours after learning session and electric shock. The animal was placed on illuminated platform once again, and time of the presence on illuminated platform and dangerous dark chamber (no current was conducted to the floor during reproduction of PAR).
Control trained animals with reproduction of PAR without electric shock preferred to stay on illuminated platform. Obliteration of training with electric shock causes amnesia in the animals; as a result, the animals with short latent period enter dark chamber and stay there considerably longer than animals without amnesia (Table 2).

[2] = tested on: rats with induced ischemia; test: Passive avoidance response in animals with induced ischemia; details: 24 hours after learning, 180 seconds test
Source text: In separate series of the experiments the animals learned in the test of passive avoidance response (PAR), which was formed in apparatus supplied by Lafayette Instrument Co. (USA) comprising brightly illuminated hanging platform connected to dark chamber with electrified floor. In the course of learning the rat entered dark chamber due to congenital hole reflex, and received pain electric stimulus.
These effects of nooglutyl and Compound Ia were significant compared with control at p<0.05.

[3] = tested on: rats with hemorrhagic stroke; test: Hemorrhagic stroke: neurological deficit (Stroke-index McGrow scale); details: for Number of animals with neurological symptoms, %: Circus movements / Number of animals with neurological symptoms, %: Palsy of 1-4 extremities / Number of animals with neurological symptoms, %: Paresis of 1-4 extremities / Number of animals with neurological symptoms, %: Weakness of extremities: 20 mg/kg single dose intraperitoneally; for Rats with severe neurological symptoms: control with hemorrhagic stroke 60%
Source text: (§1) White nondescript male rats with body weight 200-250 g, which lived in vivarium and had feed (standard palletized feed) and water ad libitum, with natural alternation of day and night, were used in the experiments. Hemorrhagic stroke (local cerebral hemorrhage) was simulated according to method by A. N. Makarenko et al. (Method of local hemorrhage simulation I various structures of the brain in experimental animals. Journal Visshei Nervnoy Deyatelnosti—Journal of Higher Nervous Activities, 2002, v. 52, No 6, p. 765-768). In nembutal-anesthetized rats (40 mg/kg, i.m.) destruction of the brain tissue in capsule interna area was made with the use of special device (mandarin-knife) followed by application of blood (0.02-0.03 ml) taken from under the rat's tongue to the damaged area (within 2-3 minutes). False-operated animals underwent scalping and craniotomy. The animals were divided into 5 groups: intact rats, false-operated rats, animals with hemorrhagic stroke received nooglutyl at 20 mg/kg, and animals with hemorrhagic stroke received Compound I at 20 mg/kg. Effects were recorded within 24 hours and 14 days after the surgery. Learning ability and memory of the rats was examined in the model of passive avoidance response (PAR, Passive Avoidance supplied by Lafayette Instrument Co., USA). To determine neurological deficit in the animals Stroke-index McGrow scale modified by I. V. Gannushkina (Functional architectonics of the brain, Moscow, Medicina, 1977, 224 p.) was used. The severity of the condition was determined by the sum of the points. The number of rats with mild symptoms up to 2.5 points of Stroke-index scale (apathy, weakness of the extremities, unilateral semiptosis, tremor, circus movements) and severe manifestations of neurological disorders (3 to 10 points)—paresis of the extremities, palsy of low extremities, lateral position. The animals received single dose of nooglutyl and Compound I at the same dose 20 mg/kg intraperitoneally within 3-3.5 hours after the surgery. Controlled animals were treated with saline. At onset of the experiment each group comprised 15-20 animals. Mortality of the rats was recorded throughout the observation period (14 days). Statistical analysis was made using parametrical and non-parametrical methods and Biostat software. Nimodipin administered at 01.mg/kg according to above scheme was considered as a standard.

[4] = tested on: rats with hemorrhagic stroke; test: Hemorrhagic stroke: reproduction of passive avoidance response; details: 20 mg/kg; for Increase of the share of rats with HS that retained the memory trace: PAR reproduction on Day 14, versus 8% of untreated rats with stroke
Source text: as §1

[5] = 30 mg/kg intraperitoneally 40 minutes before the experiment
[6] = 60 mg/kg intraperitoneally 40 minutes before the experiment
[7] = 120 mg/kg intraperitoneally 40 minutes before the experiment
[8] = PAR reproduction within 24 hours
[9] = PAR reproduction within 14 days

SMILES	Life interval of mice (minutes) exposed to hypoxia in hermovolume [1, 5] [min]	Life interval of mice (minutes) exposed to hypoxia in hermovolume [1, 6] [min]	Life interval of mice (minutes) exposed to hypoxia in hermovolume [1, 7] [min]	Time of presence of animals while PAR reproduction (seconds) in the dark chamber (rats with amnesia; 25 mg/kg intraperitoneally) [s]	Time of presence of animals while PAR reproduction (seconds) on the illuminated platform (rats with amnesia; 25 mg/kg intraperitoneally) [s]	Time of presence of animals while PAR reproduction (seconds) in the dark chamber (rats with amnesia; 50 mg/kg intraperitoneally) [s]	Time of presence of animals while PAR reproduction (seconds) on the illuminated platform (rats with amnesia; 50 mg/kg intraperitoneally) [s]	Dose level with statistically significant antiamnestic effect of the same intensity (rats with amnesia) [mg/kg]	Latent period of entry to dark dangerous chamber [2] [s]	Number of animals with neurological symptoms, %: Circus movements ([3]; Day 1) [%]	Number of animals with neurological symptoms, %: Palsy of 1-4 extremities ([3]; Day 1) [%]	Number of animals with neurological symptoms, %: Paresis of 1-4 extremities ([3]; Day 1) [%]	Number of animals with neurological symptoms, %: Weakness of extremities ([3]; Day 1)	Number of animals with neurological symptoms, %: Circus movements ([3]; Day 14) [%]	Number of animals with neurological symptoms, %: Palsy of 1-4 extremities ([3]; Day 14) [%]	Number of animals with neurological symptoms, %: Paresis of 1-4 extremities ([3]; Day 14)	Number of animals with neurological symptoms, %: Weakness of extremities ([3]; Day 14) [%]	Rats with severe neurological symptoms ([3]; Day 14) [%]	Increase of the share of rats with HS that retained the memory trace [4] [fold]	Latent period of entry to dark chamber (c) [4, 8] [c]	also measured
O=C([O-])CC[C@H](NC(=O)c1cncc(O)c1)C(=O)[O-].[Ca+2] [Compound I, Calcium N-(5-hydroxynicotinoyl)-L-glutamate]	16.2 ± 0.31	17.8 ± 0.41	18.1 ± 0.48	64.2 ± 6.4	55.8 ± 9.3	40.6 ± 8.3	79.4 ± 12.8	25	62.3 ± 7.2	10	0	10	20* %	10	0	5* %	0	15	6.5	128.1 ± 17.6	Number of animals, which did not enter dark chamber (%) [4, 8]: 63%; Latent period of entry to dark chamber (c) [4, 9]: 98.9 ± 21.3 c; Number of animals, which did not enter dark chamber (%) [4, 9]: 52$$ %
O=C(O)CC[C@H](NC(=O)c1cncc(O)c1)C(=O)O [Nooglutyl, N-(5-hydroxynicotinoyl)-L-glutamic acid, reference compound]	13.9 ± 0.42	15.2 ± 0.39	16.4 ± 0.53	73.3 ± 13.4	46.7 ± 13.4	65.7 ± 7.1	54.3 ± 10.2	50	56.2 ± 8.3	5	0	25	30* %	0	0	20* %	10	25	5	130.4 ± 20.1	Number of animals, which did not enter dark chamber (%) [4, 8]: 64%; Latent period of entry to dark chamber (c) [4, 9]: 92.2 ± 18.2 c; Number of animals, which did not enter dark chamber (%) [4, 9]: 40$ %
